Laboratory results as given in ChEMBL document CHEMBL1201862, “PubChem BioAssay data set” (2004).
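Dose response: 5 concentrations. Exposure: 48 h. Format: 96-well plates. Endpoint: linear interpolation; highest concentration if not reached. At the GI50, growth is halved.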 Active and inactive are the calls of the source. Rule as the data show it: active = GI50 up to about 1.1 µM and inactive = higher.

Legend:
Assay in all cases: NCI tumour cell line growth inhibition, 48 h
HT-29 = tested on: HT-29
EKVX = tested on: EKVX
SF-295 = tested on: SF-295
HOP-92 = tested on: HOP-92
COLO 205 = tested on: COLO 205
MDA-MB-231 = tested on: MDA-MB-231
CAKI-1 = tested on: CAKI-1
HL-60 = tested on: HL-60
CCRF-CEM = tested on: CCRF-CEM
TK-10 = tested on: TK-10
HCT-116 = tested on: HCT-116
HOP-62 = tested on: HOP-62
MCF7 = tested on: MCF7
RXF 393 = tested on: RXF 393
SNB-75 = tested on: SNB-75
HCC 2998 = tested on: HCC 2998
DU-145 = tested on: DU-145
SK-OV-3 = tested on: SK-OV-3
SK-MEL-5 = tested on: SK-MEL-5
MDA-N = tested on: MDA-N
NCI-H522 = tested on: NCI-H522
HCT-15 = tested on: HCT-15
Malme-3M = tested on: Malme-3M
NCI-H460 = tested on: NCI-H460
LOX IMVI = tested on: LOX IMVI
UACC-257 = tested on: UACC-257
BT-549 = tested on: BT-549
OVCAR-5 = tested on: OVCAR-5
NCI/ADR-RES = tested on: NCI/ADR-RES
OVCAR-3 = tested on: OVCAR-3
ACHN = tested on: ACHN
UACC-62 = tested on: UACC-62
MOLT-4 = tested on: MOLT-4
OVCAR-8 = tested on: OVCAR-8
NCI-H23 = tested on: NCI-H23
SNB-19 = tested on: SNB-19
Hs-578T = tested on: Hs-578T
UO-31 = tested on: UO-31
A549 = tested on: A549
T47D = tested on: T47D
NCI-H226 = tested on: NCI-H226
M14 = tested on: M14
MDA-MB-435 = tested on: MDA-MB-435
SW-620 = tested on: SW-620
A498 = tested on: A498
SF-539 = tested on: SF-539
PC-3 = tested on: PC-3
U-251 = tested on: U-251
SN12C = tested on: SN12C
786-0 = tested on: 786-0
OVCAR-4 = tested on: OVCAR-4
K562 = tested on: K562
SK-MEL-2 = tested on: SK-MEL-2
KM12 = tested on: KM12
SR = tested on: SR
SF-268 = tested on: SF-268
SK-MEL-28 = tested on: SK-MEL-28
RPMI-8226 = tested on: RPMI-8226
IGROV-1 = tested on: IGROV-1

c1cc(-c2ccc(-c3ccc(C4=NCCCN4)cc3)o2)ccc1C1=NCCCN1
GI50 (HT-29): 76.4 µM (inactive) | GI50 (EKVX): 40.2 µM (inactive) | GI50 (SF-295): 24.2 µM (inactive) | GI50 (HOP-92): 32 µM (inactive) | GI50 (COLO 205): 68.9 µM (inactive) | GI50 (MDA-MB-231): > 100 µM (inactive) | GI50 (CAKI-1): 74.1 µM (inactive) | GI50 (HL-60): > 100 µM (inactive) | GI50 (CCRF-CEM): > 100 µM (inactive) | GI50 (TK-10): 50.2 µM (inactive) | GI50 (HCT-116): 39.6 µM (inactive) | GI50 (HOP-62): 47.8 µM (inactive) | GI50 (MCF7): 88.7 µM (inactive) | GI50 (RXF 393): > 100 µM (inactive) | GI50 (SNB-75): 43 µM (inactive) | GI50 (HCC 2998): 92.9 µM (inactive) | GI50 (DU-145): 89.3 µM (inactive) | GI50 (SK-OV-3): > 100 µM (inactive) | GI50 (SK-MEL-5): 22.8 µM (inactive) | GI50 (MDA-N): 32.6 µM (inactive) | GI50 (NCI-H522): 81.3 µM (inactive) | GI50 (HCT-15): 90.8 µM | GI50 (Malme-3M): 49.4 µM (inactive) | GI50 (NCI-H460): 14.6 µM (inactive) | GI50 (LOX IMVI): 37.4 µM (inactive) | GI50 (UACC-257): 38.8 µM (inactive) | GI50 (BT-549): 35.4 µM (inactive) | GI50 (OVCAR-5): > 100 µM (inactive) | GI50 (NCI/ADR-RES): 76.7 µM (inactive) | GI50 (OVCAR-3): > 100 µM (inactive) | GI50 (ACHN): > 100 µM (inactive) | GI50 (UACC-62): 19 µM (inactive) | GI50 (MOLT-4): > 100 µM (inactive) | GI50 (OVCAR-8): 59.3 µM (inactive) | GI50 (NCI-H23): 46 µM (inactive) | GI50 (SNB-19): 52.6 µM (inactive) | GI50 (Hs-578T): 98.6 µM (inactive) | GI50 (UO-31): > 100 µM (inactive) | GI50 (A549): 8.2 µM (inactive) | GI50 (T47D): 59.7 µM (inactive) | GI50 (NCI-H226): 54 µM (inactive) | GI50 (M14): 53.5 µM (inactive) | GI50 (MDA-MB-435): 33.5 µM (inactive) | GI50 (SW-620): 82.2 µM (inactive) | GI50 (A498): 2.24 µM (inactive) | GI50 (SF-539): 87.5 µM (inactive) | GI50 (PC-3): 79.1 µM (inactive) | GI50 (U-251): 33.3 µM (inactive) | GI50 (SN12C): 4.18 µM (inactive) | GI50 (786-0): 61.5 µM (inactive) | GI50 (OVCAR-4): > 100 µM (inactive) | GI50 (K562): 40.6 µM (inactive) | GI50 (SK-MEL-2): > 100 µM (inactive) | GI50 (KM12): 43.7 µM (inactive) | GI50 (SR): > 100 µM (inactive) | GI50 (SF-268): > 100 µM (inactive) | GI50 (SK-MEL-28): 25.1 µM (inactive)

CC(C)(C)C(=O)CP(=O)(O)O
GI50 (RPMI-8226): > 100 µM (inactive) | GI50 (HT-29): > 100 µM (inactive) | GI50 (EKVX): > 100 µM (inactive) | GI50 (SF-295): > 100 µM (inactive) | GI50 (HOP-92): > 100 µM (inactive) | GI50 (COLO 205): > 100 µM (inactive) | GI50 (MDA-MB-231): > 100 µM (inactive) | GI50 (CAKI-1): > 100 µM (inactive) | GI50 (HL-60): > 100 µM (inactive) | GI50 (CCRF-CEM): > 100 µM (inactive) | GI50 (TK-10): > 100 µM (inactive) | GI50 (HCT-116): > 100 µM (inactive) | GI50 (IGROV-1): > 100 µM (inactive) | GI50 (HOP-62): > 100 µM (inactive) | GI50 (MCF7): > 100 µM (inactive) | GI50 (RXF 393): > 100 µM (inactive) | GI50 (SNB-75): > 100 µM (inactive) | GI50 (DU-145): > 100 µM (inactive) | GI50 (SK-OV-3): > 100 µM (inactive) | GI50 (SK-MEL-5): > 100 µM (inactive) | GI50 (MDA-N): > 100 µM (inactive) | GI50 (NCI-H522): > 100 µM (inactive) | GI50 (HCT-15): > 100 µM | GI50 (Malme-3M): > 100 µM (inactive) | GI50 (NCI-H460): > 100 µM (inactive) | GI50 (LOX IMVI): > 100 µM (inactive) | GI50 (UACC-257): > 100 µM (inactive) | GI50 (BT-549): > 100 µM (inactive) | GI50 (OVCAR-5): > 100 µM (inactive) | GI50 (NCI/ADR-RES): > 100 µM (inactive) | GI50 (OVCAR-3): > 100 µM (inactive) | GI50 (ACHN): > 100 µM (inactive) | GI50 (UACC-62): > 100 µM (inactive) | GI50 (MOLT-4): > 100 µM (inactive) | GI50 (OVCAR-8): > 100 µM (inactive) | GI50 (NCI-H23): > 100 µM (inactive) | GI50 (SNB-19): > 100 µM (inactive) | GI50 (Hs-578T): > 100 µM (inactive) | GI50 (A549): > 100 µM (inactive) | GI50 (T47D): > 100 µM (inactive) | GI50 (NCI-H226): > 100 µM (inactive) | GI50 (M14): > 100 µM (inactive) | GI50 (MDA-MB-435): > 100 µM (inactive) | GI50 (SW-620): > 100 µM (inactive) | GI50 (A498): > 100 µM (inactive) | GI50 (SF-539): > 100 µM (inactive) | GI50 (PC-3): > 100 µM (inactive) | GI50 (U-251): > 100 µM (inactive) | GI50 (SN12C): > 100 µM (inactive) | GI50 (786-0): > 100 µM (inactive) | GI50 (OVCAR-4): > 100 µM (inactive) | GI50 (K562): > 100 µM (inactive) | GI50 (SK-MEL-2): > 100 µM (inactive) | GI50 (KM12): > 100 µM (inactive) | GI50 (SR): > 100 µM (inactive) | GI50 (SF-268): > 100 µM (inactive) | GI50 (SK-MEL-28): > 100 µM (inactive)
